Consider 68 molecules from publication PMC8041284, “Tunable Methacrylamides for Covalent Ligand Directed Release Chemistry” (Journal of the American Chemical Society, 2021).

The assay has as its target BTK (Homo sapiens, UniProt Q06187). The assay can be described thus: biochemical.
[1] abbreviates: read-out: BTK inhibition (%), 0.75 uM BTK, […] probe 3l, 15 min preincubation.

Where two headings read alike, the source gives them in different places.

BTK, sequence (Q06187 402-655 limits assumed): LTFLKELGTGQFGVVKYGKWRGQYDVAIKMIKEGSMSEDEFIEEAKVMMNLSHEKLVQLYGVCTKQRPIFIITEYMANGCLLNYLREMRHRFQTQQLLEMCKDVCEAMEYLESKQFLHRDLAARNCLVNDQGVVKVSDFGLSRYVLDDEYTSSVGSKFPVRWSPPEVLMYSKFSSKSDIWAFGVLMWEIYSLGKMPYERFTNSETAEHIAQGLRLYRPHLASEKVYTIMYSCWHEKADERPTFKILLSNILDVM

Take `CCCCCCCCCC(=O)N[C@@H](Cc1c[nH]c2ccccc12)C(=O)N[C@H](CC(N)=O)C(=O)N[C@@H](CC(=O)O)C(=O)N[C@@H]1C(=O)NCC(=O)N[C@@H](CCCN)C(=O)N[C@@H](CC(=O)O)C(=O)N[C@H](C)C(=O)N[C@@H](CC(=O)O)C(=O)NCC(=O)N[C@H](CO)C(=O)N[C@@H]([C@H](C)CC(=O)O)C(=O)N[C@@H](CC(=O)c2ccccc2N)C(=O)O[C@@H]1C` [PCM-0095008]: the inhibition at 10 µM under setting [1] is -1.6%.
For the molecule `NC(=O)Cc1cccc(C(=O)c2ccccc2)c1N` [PCM-0095009], under setting [1], the inhibition at 10 µM was 11.7%.
For `N#CC(=C(N)Sc1ccc(N)cc1)c1ccccc1C(F)(F)F` [PCM-0095011], the inhibition at 10 µM under setting [1] was -28.3%.
Regarding `CC(C)c1cc(C(=O)N2Cc3ccc(CN4CCN(C)CC4)cc3C2)c(O)cc1O` [PCM-0095012], the inhibition at 10 µM under setting [1] was -6.2%.
Regarding `NC(=O)c1ccc(-c2nc(-c3ccc4c(c3)OCO4)c(-c3ccccn3)[nH]2)cc1` [PCM-0095013], the inhibition at 10 µM under setting [1] amounted to 12.4%.
For `COc1cc2nccc(Oc3ccc(NC(=O)NC4CC4)c(Cl)c3)c2cc1C(N)=O` [PCM-0095014], under setting [1], the inhibition at 10 µM came out at 36.6%.
As to `COc1ccc(S(=O)(=O)Nc2cccnc2Nc2ccc(O)cc2)cc1` [PCM-0095016], under setting [1], the inhibition at 10 µM is -14.5%.
Take `CCNC(=O)c1noc(-c2cc(C(C)C)c(O)cc2O)c1-c1ccc(CN2CCOCC2)cc1` [PCM-0095017]: under setting [1], the inhibition at 10 µM is -0.7%.
As for `Cc1[nH]c(/C=C2\C(=O)Nc3ccc(S(=O)(=O)Cc4c(Cl)cccc4Cl)cc32)c(C)c1C(=O)N1CCC[C@@H]1CN1CCCC1` [PCM-0095018], the inhibition at 10 µM under setting [1] stood at 35.2%.
With `CCOC(=O)NC/C=C/c1ccc2ncnc(Nc3ccc(Oc4ccc(C)nc4)c(C)c3)c2c1` [PCM-0095019], the inhibition at 10 µM under setting [1] is -15.9%.
With `FC(F)c1nc2ccccc2n1-c1nc(N2CCOCC2)nc(N2CCOCC2)n1` [PCM-0095021], the inhibition at 10 µM under setting [1] was 16.6%.
On to `Cc1cc(C(C)Nc2ccccc2)c2nc(N3CCOCC3)cc(=O)n2c1` (centres unmarked) [PCM-0095022], for which the inhibition at 10 µM under setting [1] stood at 10.3%.
For the molecule `C=CC(=O)Nc1cccc(Oc2nc(Nc3ccc(N4CCN(C)CC4)cc3)ncc2Cl)c1` [PCM-0095023], the inhibition at 10 µM under setting [1] was 91.7%.
For `C[S+]([O-])c1ccc(-c2nc(-c3ccc(F)cc3)c(-c3ccncc3)[nH]2)cc1` (centres unmarked) [PCM-0095024], the inhibition at 10 µM under setting [1] was 18.6%.
Regarding `Cc1nc(N)sc1-c1ccnc(Nc2ccc(N3CCOCC3)cc2)n1` [PCM-0095025], under setting [1], the inhibition at 10 µM was 57.2%.
As to `c1ccc2c(CCNc3ccc(Nc4ccncc4)cc3)c[nH]c2c1` [PCM-0095026], under setting [1], the inhibition at 10 µM was 26.9%.
In the case of `CC(=O)Oc1cc2c(s1)CCN(C(C(=O)C1CC1)c1ccccc1F)C2` (centres unmarked) [PCM-0095029], under setting [1], the inhibition at 10 µM is -2.3%.
In the case of `N#CC[C@H](C1CCCC1)n1cc(-c2ncnc3[nH]ccc23)cn1` [PCM-0095031], the inhibition at 10 µM under setting [1] came out at 28.3%.
For the molecule `C[C@@H](NCCCc1cccc(C(F)(F)F)c1)c1cccc2ccccc12` [PCM-0095032], under setting [1], the inhibition at 10 µM is 24.1%.
Consider `C[C@@H](O)[C@H]1C(=O)N2C(C(=O)O)=C(S[C@@H]3CN[C@H](C(=O)N(C)C)C3)[C@H](C)[C@H]12` [PCM-0095036], for which the inhibition at 10 µM under setting [1] is -14.8%.
`CCN(CC)CCCCNc1ncc2cc(-c3cc(OC)cc(OC)c3)c(NC(=O)NC(C)(C)C)nc2n1` [PCM-0095037]: the inhibition at 10 µM under setting [1] was -9%.
For `COC(=O)Nc1ccc(-c2nc(N3CCOCC3)c3cnn(C4CCN(C(=O)OC)CC4)c3n2)cc1` [PCM-0095038], the inhibition at 10 µM under setting [1] is 18.6%.
As to `CCCS(=O)(=O)Nc1ccc(F)c(C(=O)c2c[nH]c3ncc(-c4ccc(Cl)cc4)cc23)c1F` [PCM-0095039], under setting [1], the inhibition at 10 µM is 24.8%.
For `CCOc1cc(N)c(Cl)cc1C(=O)NCC1CN(Cc2ccc(F)cc2)CCO1` (centres unmarked) [PCM-0095041], the inhibition at 10 µM under setting [1] was -14%.
As to `NC1(c2ccc(-c3nc4ccn5c(=O)[nH]nc5c4cc3-c3ccccc3)cc2)CCC1` [PCM-0095042], under setting [1], the inhibition at 10 µM was -2.8%.
Consider `C=CC(=O)Nc1cccc(Oc2nc(Nc3ccc(N4CCN(C)CC4)cc3OC)ncc2Cl)c1` [PCM-0095043], for which, under setting [1], the inhibition at 10 µM amounted to 89%.
With `C[C@](O)(COc1ccc(C#N)cc1)C(=O)Nc1ccc(C#N)c(C(F)(F)F)c1` [PCM-0095045], under “read-out: BTK inhibition (%)”, the inhibition at 10 µM is -0.8%.
`Cc1[nH]c(/C=C2\C(=O)Nc3ccc(S(=O)(=O)N(C)c4cccc(Cl)c4)cc32)c(C)c1C(=O)N1CCN(C)CC1` [PCM-0095046]: under setting [1], the inhibition at 10 µM is 6.9%.
Take `COc1c(C)cnc(Cn2cnc3c(Cl)nc(N)nc32)c1C` [PCM-0095047]: under setting [1], the inhibition at 10 µM was -10.3%.
Turning to `CS(=O)(=O)c1ccc(C(=O)Nc2ccc(Cl)c(-c3ccccn3)c2)c(Cl)c1` [PCM-0095048], the inhibition at 10 µM under setting [1] was determined as 6.2%.
As to `Cc1cc2c(F)c(Oc3ncnn4cc(OC[C@@H](C)O)c(C)c34)ccc2[nH]1` [PCM-0095049], the inhibition at 10 µM under setting [1] stood at 9%.
Still for that read-out and setting: under `CNC(=O)c1cc(Oc2ccc(NC(=O)Nc3ccc(Cl)c(C(F)(F)F)c3)c(F)c2)ccn1` [PCM-0095050] stands 13.1%.
For `O=C(/C=C/c1cccc(S(=O)(=O)Nc2ccccc2)c1)NO` [PCM-0095051], the inhibition at 10 µM under setting [1] amounted to 9%.
Regarding `C=CC(=O)Nc1cccc(Sc2nc(Nc3ccc(N4CCN(C)CC4)cc3)ncc2Cl)c1` [PCM-0095052], the inhibition at 10 µM under setting [1] was found to be 95.9%.
As to `NC(=O)c1ccc(I)c([N+](=O)[O-])c1` [PCM-0095053], the inhibition at 10 µM under setting [1] was -1.4%.
For the molecule `O=c1[nH]c(-c2ccc(C(F)(F)F)cc2)nc2c1CSCC2` [PCM-0095054], the inhibition at 10 µM under setting [1] was -25.5%.
On to `Nc1ncnc2c1c(-c1cccc(OCc3ccccc3)c1)cn2C1CC(CN2CCCC2)C1` (centres unmarked) [PCM-0095055], for which the inhibition at 10 µM under setting [1] was found to be 13.2%.
With `N=C(N)c1ccc2cc(OC(=O)c3ccc(N=C(N)N)cc3)ccc2c1` [PCM-0095060], the inhibition at 10 µM under setting [1] is -1.6%.
As for `O=C(NCCCNc1nc(Nc2cccc(NC(=O)N3CCCC3)c2)ncc1I)c1cccs1` [PCM-0095061], the inhibition at 10 µM under setting [1] was determined as 60%.
For `O=C(Nc1cccc(Nc2ncc(Br)c(NCCc3cnc[nH]3)n2)c1)N1CCCC1` [PCM-0095062], the inhibition at 10 µM under setting [1] was 85.5%.
Consider `CCOc1cc2ncc(C#N)c(Nc3ccc(F)c(Cl)c3)c2cc1NC(=O)/C=C/CN(C)C` [PCM-0095063], for which the inhibition at 10 µM under setting [1] came to 96.6%.
On to `CN1C[C@@H]2c3ccccc3Oc3ccc(Cl)cc3[C@H]2C1` [PCM-0095064], for which, under setting [1], the inhibition at 10 µM amounted to 9.3%.
On to `O=c1cc(-c2cccc3c2Sc2ccccc2S3)oc(N2CCOCC2)c1` [PCM-0095067], for which the inhibition at 10 µM under setting [1] is -12.4%.
Same read-out and setting: under `C/C(=C\C(=O)Nc1ccccc1C(=O)O)c1ccc2ccccc2c1` [PCM-0095068] stands -11%; under `CCc1cc(Nc2nccc(-c3c(-c4ccc(OC)c(C(=O)Nc5c(F)cccc5F)c4)nc4ccccn34)n2)c(OC)cc1N1CCC(N2CCN(S(C)(=O)=O)CC2)CC1` [PCM-0095069], 44.8%.
For the molecule `OCCn1cc(-c2cnc3nnn(Cc4ccc5ncccc5c4)c3n2)cn1` [PCM-0095071], the inhibition at 10 µM under setting [1] came out at 0%.
In the case of `O=C(/C=C/c1ccc(CN(CCO)CCc2c[nH]c3ccccc23)cc1)NO` [PCM-0095072], the inhibition at 10 µM under setting [1] was -9.3%.
Consider `Cn1cc(CNCC2CCN(c3ncc(C(=O)NO)cn3)CC2)c2ccccc21` [PCM-0095073], for which the inhibition at 10 µM under setting [1] was -11.7%.
As for `CC1COC2(CCN(c3nc(=O)c4cc(C(F)(F)F)cc([N+](=O)[O-])c4s3)CC2)O1` (centres unmarked) [PCM-0095074], under setting [1], the inhibition at 10 µM worked out at 4.7%.
Regarding `CNCc1ccc(-c2[nH]c3cc(F)cc4c3c2CCNC4=O)cc1` [PCM-0095075], the inhibition at 10 µM under setting [1] came to 18.6%.
Same read-out and setting: the value for `Cc1nc2ccc(CN(C)c3ccc(C(=O)N[C@@H](CCC(=O)O)C(=O)O)s3)cc2c(=O)[nH]1` [PCM-0095076] was 1.6%; that for `O=C(O)c1ccc(Nc2ncc3c(n2)-c2ccc(Cl)cc2C(c2c(F)cccc2F)=NC3)cc1` [PCM-0095077] was 79.3%.
For `C#Cc1cccc(Nc2ncnc3cc(OC)c(OCCCCCCC(=O)NO)cc23)c1` [PCM-0095078], the inhibition at 10 µM under setting [1] was 87.6%.
As for `CNC(=O)c1ccc2cc([C@@]3(O)CCn4cncc43)ccc2c1` [PCM-0095080], the inhibition at 10 µM under setting [1] is 3.1%.
On to `CCNC(=O)CCC/C=C\C[C@@H]1[C@@H](/C=C/[C@@H](O)CCc2ccccc2)[C@H](O)C[C@@H]1O` [PCM-0095085], for which the inhibition at 10 µM under setting [1] was 15.2%.
Consider `C/C(=C\c1csc(C)n1)[C@@H]1C[C@@H]2O[C@@H]2CCC[C@H](C)[C@H](O)[C@@H](C)C(=O)C(C)(C)[C@@H](O)CC(=O)O1` [PCM-0095086], for which, where the note is “read-out: BTK inhibition (%)”, the inhibition at 10 µM is 1.6%.
Turning to `C[C@@]1(c2cc(-c3cncnc3)c(F)cc2F)CCSC(N)=N1` [PCM-0095088], the inhibition at 10 µM under setting [1] is -25.7%.
Regarding `CCS(=O)(=O)Nc1ccc2[nH]c(O)c(C(=Nc3ccc(CN4CCCCC4)cc3)c3ccccc3)c2c1` [PCM-0095089], the inhibition at 10 µM under setting [1] amounted to 82.1%.
As to `CN(C)Cc1cccc(N=C(c2ccccc2)c2c(O)[nH]c3cc(C(N)=O)ccc23)c1` [PCM-0095090], under setting [1], the inhibition at 10 µM came out at 5.5%.
As for `CN(C)Cc1cccc(N=C(c2ccccc2)c2c(O)[nH]c3cc(C(=O)N(C)C)ccc23)c1` [PCM-0095091], the inhibition at 10 µM under setting [1] came to 1.4%.
The same measure, in the same setting: under `NC(=O)Nc1cc(-c2cccc(F)c2)sc1C(=O)N[C@H]1CCCNC1` [PCM-0095092] stands 86.9%.
Same read-out and setting: under `COCCOc1ccc2c(c1)ncn2-c1ccc2cccc(N3CCC(N)CC3)c2n1` [PCM-0095094] stands -18.6%.
For `Cc1ccc2c(=O)c3cccc(CC(=O)O)c3oc2c1C` [PCM-0095095], under setting [1], the inhibition at 10 µM was -7.8%.
Turning to `CN1c2ccccc2C(NCCCCCCC(=O)O)c2ccc(Cl)cc2S1(=O)=O` (centres unmarked) [PCM-0095097], the inhibition at 10 µM (read-out: BTK inhibition (%)) was -13.2%.
In the case of `N#C[C@@H]1C[C@@H]2C[C@@H]2N1C(=O)[C@@H](N)C12CC3CC(CC(O)(C3)C1)C2` [PCM-0095098], the inhibition at 10 µM under setting [1] is -22.6%.
Still for that read-out and setting: under `Cc1cn([C@@H]2C[C@@H](O)[C@H](CO)O2)c(=O)[nH]c1=O` [PCM-0095099] stands -6.2%; under `CN(C)CC/C=C1/c2ccccc2Sc2ccc(Cl)cc21` [PCM-0095101], 10.9%.
With `O=C1[C@H](CC[C@H](O)c2ccc(F)cc2)[C@@H](c2ccc(O)cc2)N1c1ccc(F)cc1` [PCM-0095103], the inhibition at 10 µM under setting [1] was found to be 31%.
